# PMC10408569, “Recruitment of hexahydroquinoline as anticancer scaffold targeting inhibition of wild and mutants EGFR (EGFR^WT, EGFR^T790M, and EGFR^L858R)” (Journal of Enzyme Inhibition and Medicinal Chemistry, 2023)
# Experiments:
# [1] = Cytotoxic effects in vitro on normal lung cells; format: cell-based; details: IMR-90 normal lung fibroblast cells; human normal lung fibroblast (IMR-90); read-out: IC50, cytotoxicity towards human normal cells IMR-90
# NCI-H23 = assay: NCI-60 anticancer screening (SRB); format: cell-based; details: Homo sapiens, five doses 0.01-100 µM, 48 h
# HOP-92 cells [2] = assay: Annexin V-FITC apoptosis assay; format: cell-based, human; details: for total apoptosis, fold more than control / total apoptosis percentage: HOP-92; for early apoptosis ratio / late apoptosis ratio: HOP-92, 10 µM, 24 h; for early apoptosis ratio: control (DMSO) 0.70%; for late apoptosis ratio: control (DMSO) 1.80%; for total apoptosis percentage: control 2.5%
# Text: The most important mechanism chemotherapeutics eradicate cancer cells is apoptosis induction[78]^,[79]. Cellular alterations brought on by apoptosis include the translocation of phosphatidylserine (PS) from the inside to the outside via the plasma membrane[80]^,[81]. PS can be detected outside the plasma membrane using a sensitive probe called Annexin V, which can bind to PS[82]^,[83]. […] HOP-92 cells were also overexpressed in NSC lung cancer. Therefore, they were selected to be subjected to apoptosis assay. HOP-92 cells were stained with AV/PI for 24 h at a mixed molar concentration of 10 µM with compounds 10c and 10d (Figure 7(A,B)). […] These findings supported that the cytotoxic effects of compounds 10c and 10d were due to the apoptotic mechanism rather than the necrotic pathway. The results of compounds 10c and 10d compared to the control sample are presented as a bar chart (Figure 7(D)).
# […] Annexin V-FITC apoptosis assay
# A protein known as annexin V-fluorescein isothiocyanate (Annexin V-FITC) binds phosphatidyl serine PS, which can be seen by staining. They used Annexin V-FITC and a propidium iodide counterstain (PI). Apoptosis was first induced by incubating cells in 96-microwell plates at a density of […] with the addition of the test substance (100 µL) for 24 hours. Then, 1-5 × 10^5 cells were centrifuged and resuspended in 500 µL of binding buffer. PI (5 µL) and Annexin V - FITC (5 µL) were added, and the mixture was incubated at room temperature for 5 minutes in the dark. An nexin -V -FITC binding was analyzed using A FACS C alibur flow cytometer (BD Biosciences, San Jose, CA). […]
# HOP-92 cells [3] = assay: Cell cycle analysis by flow cytometry; format: cell-based, human; details: HOP-92, 10 µM, 24 h; for percentage of cells at the pre-G1 phase: control 3.05%; for cells at G2/M: control 12.98%; for proportion of cells in the S phase: control 31.46%; for percentage of cells in the G0/G1: control 55.38%
# Protocol: Antitumor drugs can cause cell cycle arrest and death via activating signalling pathways[85]^,[86]. Cell growth in various cell cycle phases is measured by flow cytometry[87]^,[88]. […] We have treated HOP-92 cells with 10 µM of compounds 10c and 10d to incubate for 24 h. […] According to these observations, Compounds 10c and 10d induce apoptosis in NSC lung cancer, HOP-92, cells via cell cycle arrest at the pre-G1 phase as well as the G2/M phase (Figure 8(D)). […]
# […] Cellular mechanistic analysis
# The examination of the cell cycle was done using flow cytometry. The test compound was applied to HOP-92 cells before they were cultured for 24 hours at 37 °C, 5% CO 2. After gathering and centrifuging the cell pellets, they were fixed in 70% (v/v) ethanol unde r the ice for 15 minutes. Pellets were once more collected and then incubated in a solution of 50 µg/mL propidium iodide (PI) and […]
# 0.1 mg/mL RNAse. […]
Structure (SMILES),IC50 [1],GI50 (NCI-H23),"total apoptosis, fold more than control (HOP-92 cells [2])",early apoptosis ratio (HOP-92 cells [2]),late apoptosis ratio (HOP-92 cells [2]),total apoptosis percentage (HOP-92 cells [2]),percentage of cells at the pre-G1 phase (HOP-92 cells [3]),cells at G2/M (HOP-92 cells [3]),proportion of cells in the S phase (HOP-92 cells [3]),percentage of cells in the G0/G1 (HOP-92 cells [3])
"CCOC(=O)C1=C(N)N(c2ccccc2)C2=C(C(=O)CC(C)(C)C2)C1c1ccc(Cl)cc1Cl (racemic) [10c, (±)-Ethyl 2-amino-4–(2,4-dichlorophenyl)-7,7-dimethyl-5-oxo-1-phenyl-1,4,5,6,7,8-hexahydroquinoline-3-carboxylate]",62.2 ± 3.14 µM,2.51 µM,approximately 10 fold,8.74%,15.44%,24.18%,25.82%,34.07%,20.18%,45.75%
"CCOC(=O)C1=C(N)N(c2ccc(Cl)cc2)C2=C(C(=O)CC(C)(C)C2)C1c1ccc(Cl)cc1Cl (racemic) [10d, (±)-Ethyl 2-amino-1–(4-chorophenyl)-4–(2,4-dichlorophenyl)-7,7-dimethyl-5-oxo-1-phenyl-1,4,5,6,7,8-hexahydroquinoline-3-carboxylate]",55.5 ± 2.57 µM,,~8 fold,7.68%,12.15%,19.83%,21.55%,49.21%,25.42%,25.37%
